# Experimental data published in patent US10323022B2, “Pyrrolidinyl urea, pyrrolidinyl thiourea and pyrrolidinyl guanidine compounds as TrkA kinase inhibitors” (Array BioPharma Inc., priority 2011, dated 2019).
# Molecular target: TrkA (Homo sapiens (Human), UniProt P04629)
# Assay: TrkA Omnia Assay
# Type: biochemical
# Conditions: averaged IC50; 20 nM enzyme, 500 μM ATP, 10 μM peptide substrate
# Method in brief: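 Continuous fluorescent kinase read-out (ex 360 nm, em 485 nm) over 70 min, with initial rates fitted to 4- or 5-parameter logistic curves for IC50. Final conditions: 500 μM ATP, 10 μM Omnia Tyr Peptide #4, 20 nM TrkA, MOPS pH 7.5 buffer with MgCl2 and Triton X-100; enzyme and compound preincubated 10 min at ambient temperature.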
# Sequence of TrkA (P04629 33-796): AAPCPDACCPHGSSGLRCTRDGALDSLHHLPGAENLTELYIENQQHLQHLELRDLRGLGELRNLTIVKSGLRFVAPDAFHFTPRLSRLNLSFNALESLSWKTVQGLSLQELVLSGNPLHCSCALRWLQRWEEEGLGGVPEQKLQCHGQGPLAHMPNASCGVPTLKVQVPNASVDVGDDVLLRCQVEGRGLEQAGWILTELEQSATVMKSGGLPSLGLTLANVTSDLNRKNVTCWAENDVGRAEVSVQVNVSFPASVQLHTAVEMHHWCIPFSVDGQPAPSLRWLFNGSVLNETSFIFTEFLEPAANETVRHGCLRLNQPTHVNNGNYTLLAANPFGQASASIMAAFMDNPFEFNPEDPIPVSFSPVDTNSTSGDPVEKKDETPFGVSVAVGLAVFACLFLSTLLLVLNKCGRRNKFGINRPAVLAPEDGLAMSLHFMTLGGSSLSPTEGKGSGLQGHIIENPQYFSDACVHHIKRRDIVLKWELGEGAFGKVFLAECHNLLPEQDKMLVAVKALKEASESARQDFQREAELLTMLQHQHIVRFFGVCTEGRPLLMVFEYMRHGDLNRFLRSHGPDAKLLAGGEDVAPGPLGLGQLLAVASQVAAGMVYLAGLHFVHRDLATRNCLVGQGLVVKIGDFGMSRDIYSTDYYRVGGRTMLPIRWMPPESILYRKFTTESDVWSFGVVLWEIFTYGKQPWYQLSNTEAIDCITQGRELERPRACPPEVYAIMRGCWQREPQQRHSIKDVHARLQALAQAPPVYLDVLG
row,Compound,IC50
1,"COCCN1C[C@@H](NC(=O)Nc2c(Cl)c(C(F)(F)CO)nn2-c2ccccc2)[C@H](c2ccc(F)cc2)C1 [Example 411, 1-(4-chloro-3-(1,1-difluoro-2-hydroxyethyl)-1-phenyl-1H-pyrazol-5-yl)-3-((3S,4R)-4-(4-fluorophenyl)-1-(2-methoxyethyl)pyrrolidin-3-yl)urea]",< 100 nM
2,"COCCN1C[C@@H](NC(=O)Nc2c(Cl)c(C[C@H](C)O)nn2-c2ccccc2)[C@H](c2ccc(F)c(F)c2)C1 [Example 412, 1-(4-chloro-3-((S)-2-hydroxypropyl)-1-phenyl-1H-pyrazol-5-yl)-3-((3S,4R)-4-(3,4-difluorophenyl)-1-(2-methoxyethyl)pyrrolidin-3-yl)urea]",< 100 nM
3,"COCCN1C[C@@H](NC(=O)Nc2c(Cl)c(C[C@@H](C)O)nn2-c2ccccc2)[C@H](c2ccc(F)c(F)c2)C1 [Example 413, 1-(4-chloro-3-((R)-2-hydroxypropyl)-1-phenyl-1H-pyrazo1-5-yl)-3-((3S,4R)-4-(3,4-difluorophenyl)-1-(2-methoxyethyl)pyrrolidin-3-yl)urea]",< 100 nM
4,"COCCN1C[C@@H](NC(=O)Nc2c(Br)c(C[C@@H](C)O)nn2-c2ccccc2)[C@H](c2ccc(F)c(F)c2)C1 [Example 414, 1-(4-bromo-3-((R)-2-hydroxypropyl)-1-phenyl-1H-pyrazol-5-yl)-3-((3S,4R)-4-(3,4-difluorophenyl)-1-(2-methoxyethyl)pyrrolidin-3-yl)urea]",< 100 nM
5,"COCCN1C[C@@H](NC(=O)Nc2c(Cl)c(CC(C)(C)O)nn2-c2ccccc2)[C@H](c2ccc(F)c(F)c2)C1 [Example 415, 1-(4-chloro-3-(2-hydroxy-2-methylpropyl)-1-phenyl-1H-pyrazol-5-yl)-3-((3S,4R)-4-(3,4-difluorophenyl)-1-(2-methoxyethyl)pyrrolidin-3-yl)urea]",< 100 nM
6,"COCCN1C[C@@H](NC(=O)Nc2c(Cl)c(-c3nc(C)no3)nn2-c2ccccc2)[C@H](c2ccc(F)c(F)c2)C1 [Example 416, 1-(4-chloro-3-(3-methyl-1,2,4-oxadiazol-5-yl)-1-phenyl-1H-pyrazol-5-yl)-3-((3S,4R)-4-(3,4-difluorophenyl)-1-(2-methoxyethyl)pyrrolidin-3-yl)urea]",< 100 nM
7,"COCCN1C[C@@H](NC(=O)Nc2c(Br)c(C(C)(C)C#N)nn2-c2ccccc2)[C@H](c2ccc(F)c(F)c2)C1 [Example 417, 1-(4-bromo-3-(2-cyanopropan-2-yl)-1-phenyl-1H-pyrazol-5-yl)-3-((3S,4R)-4-(3,4-difluorophenyl)-1-(2-methoxyethyl)pyrrolidin-3-yl)urea]",< 100 nM
8,"COCCN1C[C@@H](NC(=O)Nc2c(Cl)c(C(C)(C)C#N)nn2-c2ccccc2)[C@H](c2ccc(F)c(F)c2)C1 [Example 418, 1-(4-chloro-3-(2-cyanopropan-2-yl)-1-phenyl-1H-pyrazol-5-yl)-3-((3S,4R)-4-(3,4-difluorophenyl)-1-(2-methoxyethyl)pyrrolidin-3-yl)urea]",< 100 nM
9,"COCCN1C[C@@H](NC(=O)Nc2c(Br)c(-c3cnn(C)c3)nn2-c2ccccc2)[C@H](c2cc(F)cc(F)c2)C1 [Example 419, 1-(4-bromo-1′-methyl-1-phenyl-1H,1′H-[3,4′-bipyrazol]-5-yl)-3-((3S,4R)-4-(3,5-difluorophenyl)-1-(2-methoxyethyl)pyrrolidin-3-yl)urea]",< 100 nM
10,"COCCN1C[C@@H](NC(=O)Nc2c(Br)c(-c3cnn(C)c3)nn2-c2ccccc2)[C@H](c2ccc(F)c(F)c2)C1 [Example 420, 1-(4-bromo-1′-methyl-1-phenyl-1H,1′H-[3,4′-bipyrazol]-5-yl)-3-((3S,4R)-4-(3,4-difluorophenyl)-1-(2-methoxyethyl)pyrrolidin-3-yl)urea]",< 100 nM
11,COCCN1C[C@@H](NC(=O)Nc2c(Br)c(-c3cnn(C)c3)nn2-c2ccccc2)[C@H](c2ccc(F)cc2)C1 [Example 421],< 100 nM
12,"COCCN1C[C@@H](NC(=O)Nc2c(Cl)c(-c3cnn(C)c3)nn2-c2ccccc2)[C@H](c2cc(F)cc(F)c2)C1 [Example 422, 1-(4-chloro-1′-methyl-1-phenyl-1H,1′H-[3,4′-bipyrazol]-5-yl)-3-((3S,4R)-4-(3,5-difluorophenyl)-1-(2-methoxyethyl)pyrrolidin-3-yl)urea]",< 100 nM
13,"COCCN1C[C@@H](NC(=O)Nc2c(Cl)c(-c3cnn(C)c3)nn2-c2ccccc2)[C@H](c2ccc(F)c(F)c2)C1 [Example 423, 1-(4-chloro-1′-methyl-1-phenyl-1H,1′H-[3,4′-bipyrazol]-5-yl)-3-((3S,4R)-4-(3,4-difluorophenyl)-1-(2-methoxyethyl)pyrrolidin-3-yl)urea]",< 100 nM
14,"COCCN1C[C@@H](NC(=O)Nc2c(Cl)c(-c3cnn(C)c3)nn2-c2ccccc2)[C@H](c2ccc(F)cc2)C1 [Example 424, 1-(4-chloro-1′-methyl-1-phenyl-1H,1′H-[3,4′-bipyrazol]-5-yl)-3-((3S,4R)-4-(4-fluorophenyl)-1-(2-methoxyethyl)pyrrolidin-3-yl)urea]",< 100 nM
15,"COCCN1C[C@@H](NC(=O)Nc2c(Cl)c(-c3cnn(C)c3)nn2-c2ccccc2)[C@H](c2ccccc2)C1 [Example 425, 1-(4-chloro-1′-methyl-1-phenyl-1H,1′H-[3,4′-bipyrazol]-5-yl)-3-((3S,4R)-4-phenyl-1-(2-methoxyethyl)pyrrolidin-3-yl)urea]",< 100 nM
16,"COCCN1C[C@@H](NC(=O)Nc2c(Cl)c(-c3ccccc3)nn2-c2ccccc2)[C@H](c2cc(F)cc(F)c2)C1 [Example 426, 1-(4-chloro-1,3-diphenyl-1H-pyrazol-5-yl)-3-((3S,4R)-4-(3,5-difluorophenyl)-1-(2-methoxyethyl)pyrrolidin-3-yl)urea]",< 100 nM
17,"COCCN1C[C@@H](NC(=O)Nc2c(Br)c(-c3ccccc3)nn2-c2ccccc2)[C@H](c2cc(F)cc(F)c2)C1 [Example 427, 1-(4-bromo-1,3-diphenyl-1H-pyrazol-5-yl)-3-((3S,4R)-4-(3,5-difluorophenyl)-1-(2-methoxyethyl)pyrrolidin-3-yl)urea]",< 100 nM
18,"COCCN1C[C@@H](NC(=O)Nc2c(Br)c(-c3ccccc3)nn2-c2ccccc2)[C@H](c2ccc(F)cc2)C1 [Example 428, 1-(4-bromo-1,3-diphenyl-1H-pyrazol-5-yl)-3-((3S,4R)-4-(4-fluorophenyl)-1-(2-methoxyethyl)pyrrolidin-3-yl)urea]",< 100 nM
19,"COCCN1C[C@@H](NC(=O)Nc2c(F)c(-c3cnn(C)c3)nn2-c2ccccc2)[C@H](c2cncc(F)c2)C1 [Example 432, 1-(4-fluoro-1′-methyl-1-phenyl-1H,1′H-[3,4′-bipyrazol]-5-yl)-3-((3S,4R)-4-(5-fluoropyridin-3-yl)-1-(2-methoxyethyl)pyrrolidin-3-yl)urea]",100 to 1000 nM
20,COCCN1C[C@@H](NC(=O)Nc2c(Br)c(C)nn2-c2ccccc2)[C@H](c2cncc(F)c2)C1 [Example 433],< 100 nM
21,COCCN1C[C@@H](NC(=O)Nc2c(Cl)c(C)nn2-c2ccccc2)[C@H](c2cncc(F)c2)C1 [Example 434],< 100 nM
22,"COCCN1C[C@@H](NC(=O)Nc2c(F)c(-c3cnn(C)c3)nn2-c2ccccc2)[C@H](c2ccc(F)c(F)c2)C1 [Example 438, 1-((3S,4R)-4-(3,4-difluorophenyl)-1-(2-methoxyethyl)pyrrolidin-3-yl)-3-(4-fluoro-1′-methyl-1-phenyl-1H,1′H-[3,4′-bipyrazol]-5-yl)urea]",< 100 nM
23,"COCCN1C[C@@H](NC(=O)Nc2c(F)c(-c3cnn(C)c3)nn2-c2ccccc2)[C@H](c2cc(F)cc(F)c2)C1 [Example 439, 1-((3S,4R)-4-(3,5-difluorophenyl)-1-(2-methoxyethyl)pyrrolidin-3-yl)-3-(4-fluoro-1′-methyl-1-phenyl-1H,1′H-[3,4′-bipyrazol]-5-yl)urea]",< 100 nM
24,"COCCN1C[C@@H](NC(=O)Nc2c(Br)c(-c3cnn(C)c3)nn2-c2ccccc2)[C@H](c2cncc(F)c2)C1 [Example 440, 1-(4-bromo-1′-methyl-1-phenyl-1H,1′H-[3,4′-bipyrazol]-5-yl)-3-((3S,4R)-4-(5-fluoropyridin-3-yl)-1-(2-methoxyethyl)pyrrolidin-3-yl)urea]",< 100 nM
25,"COCCN1C[C@@H](NC(=O)Nc2c(C)c(-c3cnn(C)c3)nn2-c2ccccc2)[C@H](c2ccc(F)cc2)C1 [Example 441, 1-(1′,4-dimethyl-1-phenyl-1H, 1′H-[3,4′-bipyrazol]-5-yl)-3-((3S,4R)-4-(4-fluorophenyl)-1-(2-methoxyethyl)pyrrolidin-3-yl)urea]",< 100 nM
26,"COCCN1C[C@@H](NC(=O)Nc2c(C)c(-c3cnn(C)c3)nn2-c2ccccc2)[C@H](c2cc(F)cc(F)c2)C1 [Example 442, 1-(1′,4-dimethyl-1-phenyl-1H, 1′H-[3,4′-bipyrazol]-5-yl)-3-((3S,4R)-4-(3,5-difluorophenyl)-1-(2-methoxyethyl)pyrrolidin-3-yl)urea]",< 100 nM
27,"COCCN1C[C@@H](NC(=O)Nc2c(C)c(-c3cnn(C)c3)nn2-c2ccccc2)[C@H](c2cc(F)c(F)c(F)c2)C1 [Example 443, 1-(1′,4-dimethyl-1-phenyl-1H, 1′H-[3,4′-bipyrazol]-5-yl)-3-((3S,4R)-4-(3,4,5-trifluorophenyl)-1-(2-methoxyethyl)pyrrolidin-3-yl)urea]",< 100 nM
28,"COCCN1C[C@@H](NC(=O)Nc2c(C)c(-c3cnn(Cc4ccc(OC)cc4)c3)nn2-c2ccccc2)[C@H](c2ccc(F)c(F)c2)C1 [Example 446, 1-((3S,4R)-4-(3,4-difluorophenyl)-1-(2-methoxyethyl)pyrrolidin-3-yl)-3-(1′-(4-methoxybenzyl)-4-methyl-1-phenyl-1H, 1′H-[3,4′-bipyrazol]-5-yl)urea]",< 100 nM
29,COCCN1C[C@@H](NC(=O)Nc2c(C)c(-c3cn[nH]c3)nn2-c2ccccc2)[C@H](c2ccc(F)c(F)c2)C1 [Example 447],< 100 nM
30,"COCCN1C[C@@H](NC(=O)Nc2c(Cl)c(CCOC(C)=O)nn2-c2ccccc2)[C@H](c2ccc(F)c(F)c2)C1 [Example 448, 2-(4-chloro-5-(3-((3S,4R)-4-(3,4-difluorophenyl)-1-(2-methoxyethyl)pyrrolidin-3-yl)ureido)-1-phenyl-1H-pyrazol-3-yl)ethyl acetate]",< 100 nM
